Common to all, as to experiment: growth of human tumour cells (NCI), 48 h
Test [1] deals with HS 578T breast.
For test [2], the system named is NCI-H23 lung.
Test [3] deals with UACC-62 melanoma.
The test system of test [4] is NCI-H226 lung.
Test [5] has as its system COLO 205 colon.
Test [6] has as its system NCI-H460 lung.
The test system of test [7] is OVCAR-3 ovarian.
The test system of test [8] is SN12C renal.
In test [9] the test system is HOP-92 NSCLC.
The subject of test [10] is HCC-2998 colon.

Here are results for 20 compounds from PubChem BioAssay (NCI).

Each structure is given as a SMILES string.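 Interpolation was linear, between the two tested concentrations surrounding the appropriate level; five concentrations were tested over 48 hours in 96-well plates. GI50 is the concentration that inhibits growth by half. The concentration for full growth arrest is given as TGI.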

As to `CC(=O)C(C(=N)C#N)C(=O)Nc1ccccc1` (stereo not drawn), the TGI in test [1], in test [2], in [3], in test [4], in test [5] and in test [6] was above 100 µM each time. Also, the TGI in [7], in test [8] and in test [9] was above 100 µM each time.

`COC(=O)C/C(C)=C/[C@@H](O)[C@H]1O[C@@H]2CC/C(Cl)=C/C/C=C(/C)[C@H](OC(C)=O)CC(=O)O[C@@H]1C2`: the GI50 in [1] is 0.546 µM; in [2] it was 1.14 µM; in [3] it was 0.694 µM; in test [4], 4.76 µM; in test [5], 1.72 µM; in test [6], 0.367 µM. Besides, in test [8], the GI50 was 1.01 µM. Further, the TGI in [1] was determined as 2.14 µM; in test [2], 7.74 µM; in test [3] it was 1.67 µM; in [4] it was 11.8 µM; in [5], 7.51 µM; in [6], 13.8 µM. In addition, in test [8], the TGI stood at 7.4 µM.

As for `O=P(Oc1ccccc1)(Oc1ccccc1)C(O)c1ccccc1` (stereo not drawn), the GI50 in test [1] is 45.9 µM; in test [2], above 100 µM; in test [3], 44.8 µM; in test [10], above 100 µM; in [5], 35 µM; in [6], above 100 µM. The GI50 is 43.9 µM in [7] and above 100 µM in test [8]. For the same compound, the TGI in test [1], in test [2], in test [3], in test [10], in test [5] and in test [6] was above 100 µM in each case. In addition, the TGI in test [7] and in [8] was above 100 µM in each case.

`CCN(CC)c1ccc2[nH]c3c(C(N)=O)cc(=O)c(=O)c=3oc2c1`: the GI50 in test [1] is 0.663 µM; in [2], 1.4 µM; in [3], 1.59 µM; in [4], 2.49 µM; in test [5] it was 3.09 µM; in test [6], 1.34 µM. For the same compound, the GI50 in test [7] is 0.68 µM; in test [8], 2.09 µM; in test [9], 2820 nM. Moreover, the TGI in test [1] is above 100 µM; in test [2], 5.17 µM; in test [3] it was 4.75 µM; in [4] it was 7.54 µM; in test [5] it was 11.3 µM; in test [6], 12.6 µM. Also, the TGI in test [7] is 4.3 µM; in test [8] it was above 100 µM; in test [9], 7.83 µM.

With `O=C(O)C(Cc1ccccc1-c1ccccc1)C(=O)O`, the TGI in test [1], in test [2], in test [3], in test [4], in [5] and in test [6] was above 100 µM in each case. In addition, the TGI in test [7], in [8] and in test [9] was above 100 µM each time.

Take `COc1cc2c3c(n(CCCO)c(=O)c2cc1OC)-c1cc2c(cc1C3=O)OCO2`: the GI50 in test [1] is 52 µM; in [2], 6.75 µM; in test [3] it was 2.45 µM; in [4] it was 3.85 µM; in test [5], 26.4 µM; in [6], 0.845 µM. The GI50 in test [7] was 21.6 µM; in test [8], 3.53 µM; in test [9], 226 nM. Further, the TGI is above 100 µM in [1]; 28.3 µM in test [2]; 25.3 µM in test [3]; 50.9 µM in test [4]; 98 µM in test [5]; above 100 µM in test [6]. Also, the TGI is above 81.9 µM in test [7], above 54.3 µM in test [8] and 11.4 µM in [9].

As to `O=C(O)C1CCCN1Cc1c[nH]c2ccccc12` (stereo not drawn), the TGI in test [1], in test [2], in test [3], in test [4], in [5] and in test [6] was above 100 µM each time. Further, the TGI in test [7], in test [8] and in [9] was above 100 µM throughout.

As to `CCOC(=O)c1sc2ncn(Cc3cccc(Cl)c3)c(=O)c2c1C`, the GI50 in test [1] is 17.5 µM; in test [2], 14.7 µM; in [3], 13.4 µM; in [4] it was 12.9 µM; in [5], 20.7 µM; in test [6], 18.7 µM. Moreover, the GI50 in [7] is 12.6 µM; in test [8], 15.3 µM; in test [9] it was 12200 nM. Also, the TGI in [1] is 31.3 µM; in [2] it was 27.9 µM; in test [3] it was 26.8 µM; in test [4], 25.8 µM; in test [5] it was 36.6 µM; in test [6] it was 39.7 µM. Besides, the TGI in test [7] is 25.1 µM; in test [8], 28.6 µM; in test [9] it was 24.5 µM.

For `O=C(Oc1cccc(Nc2ncnc3ccccc23)c1)c1ccccc1Cl`, the GI50 in test [1] was 19.1 µM; in test [2] it was 13 µM; in [3], 22.5 µM; in [10], 20.4 µM; in [4], 16.3 µM; in test [5], 24 µM. The GI50 is 20.3 µM in test [6], 16.7 µM in test [7] and 15.5 µM in test [8]. The TGI was 48.1 µM in test [1]; 31.8 µM in test [2]; 80.6 µM in test [3]; 39.3 µM in test [10]; 43.8 µM in test [4]; above 100 µM in test [5]. The TGI in [6] came to 52.7 µM; in [7], 56.9 µM; in [8], 49.6 µM.

Consider `Cc1ccc(C)c(-n2c(-c3ccc(Br)cc3)csc2=NC(=O)c2ccccc2F)c1`, for which the GI50 in test [1], in test [3], in [10], in [4], in [5] and in test [7] was above 100 µM each time. In addition, the GI50 in test [8] was above 100 µM. Moreover, the TGI in test [1], in test [3], in test [10], in test [4], in test [5] and in test [7] was above 100 µM each time. Besides, the TGI in [8] was above 100 µM.

With `CS(=O)(=O)c1ccc(Oc2nccc(-c3c(-c4ccc(F)cc4)ncn3C3CCNCC3)n2)cc1`, the GI50 in test [1], in [3], in test [10], in test [5], in test [6] and in test [7] was above 25 µM each time. In test [8], the GI50 is above 25 µM. Further, the TGI in test [1], in [3], in [10], in [5], in [6] and in [7] was above 25 µM each time. Moreover, the TGI in [8] was above 25 µM.

Regarding `O=C(Nc1cccc(C2=NCCN2)c1)c1ccc(OCCCOc2ccc(C(=O)Nc3cccc(C4=NCCN4)c3)cc2)cc1`, the results for the GI50 in test [1], in test [3] and in test [9] were 2.55 µM, 1.41 µM and 1250 nM, respectively. For the same compound, the TGI in [1] is 6.6 µM; in test [3] it was 45.7 µM; in test [9] it was 7 µM.

`CC1=C(C(=O)Nc2ccc(F)c(Cl)c2)C(c2cccc(O)c2)NC(=S)N1` (stereo not drawn): the GI50 in test [1] was 13.7 µM; in test [2], 19.2 µM; in test [3], 11.9 µM; in [5], 22.2 µM; in [6], 22.8 µM; in test [7] it was 17.9 µM. The GI50 in [8] was 12.7 µM; in [9] it was above 50000 nM. Besides, the TGI was 47 µM in test [1]; above 50 µM in test [2]; 36.6 µM in [3]; above 50 µM in test [5]; above 50 µM in test [6]; above 50 µM in test [7]. Also, the TGI in test [8] was 39.2 µM; in test [9], above 50 µM.

With `COc1cc(/C=C2\CC(C)CC3C2=NN(c2ccccc2)C3c2cc(OC)c(OC)c(OC)c2)cc(OC)c1OC` (stereo not drawn), the GI50 is 18.4 µM in [1]; 11.7 µM in [3]; 17.9 µM in [10]; 37.4 µM in test [4]; 17.5 µM in [5]; 11.1 µM in test [6]. Further, the GI50 in test [7] is 14.1 µM; in [8] it was 19.8 µM; in test [9], 13600 nM. Besides, the TGI was 81.2 µM in [1]; 57.1 µM in test [3]; 37.5 µM in test [10]; above 100 µM in test [4]; above 100 µM in test [5]; 28.4 µM in test [6]. In addition, the TGI in [7] is above 100 µM; in [8], above 100 µM; in test [9], 37.1 µM.

As to `COc1cccc2c(Nc3ccc(C(=O)NCCNCCO)cc3)cc(-c3ccccc3)nc12`, the GI50 in [1] was 29.3 µM; in [2], 63.3 µM; in test [3], 62.4 µM; in test [10], 49.6 µM; in [4], 56.1 µM; in [5] it was 23.6 µM. In addition, the GI50 in [7] was 39.2 µM; in test [8], 34.3 µM; in [9], 16000 nM. For the same compound, the TGI in [1] is above 100 µM; in [2] it was above 100 µM; in [3], above 100 µM; in test [10], above 100 µM; in [4] it was above 100 µM; in [5] it was 86.6 µM. Besides, the TGI in test [7] is above 100 µM; in test [8] it was above 100 µM; in test [9], 51.4 µM.

For the compound `COC(=O)C(=O)C(C(=O)C(=O)Nc1ccc([N+](=O)[O-])cc1[N+](=O)[O-])c1nc2ccc([N+](=O)[O-])cc2[nH]c1=O` (stereo not drawn), the TGI in test [2], in test [3], in [10], in test [4], in test [5] and in test [6] was above 100 µM throughout. In addition, the TGI in test [7], in test [8] and in [9] was above 100 µM each time.

Turning to `CC(C)(C)[Si](C)(C)OC1[C@@H](O[Si](C)(C)C(C)(C)C)[C@@H](CNC(=O)NC(=O)NC(=O)CI)O[C@H]1n1cnc2c(NC(=O)Nc3ccccc3)ncnc21` (stereo partly drawn), the GI50 is 2.5 µM in [1]; 0.187 µM in [2]; 8.63 µM in test [3]; 8.22 µM in [10]; 10.4 µM in test [4]; 6.11 µM in test [5]. Also, the GI50 in [6] was 4.79 µM; in test [7], 0.215 µM; in [8] it was 6.49 µM. Also, the TGI is 17.8 µM in test [1]; 1.09 µM in test [2]; 22.6 µM in test [3]; 17.8 µM in test [10]; 20.6 µM in [4]; 13.2 µM in [5]. Moreover, the TGI in test [6] was found to be 21.7 µM; in [7], 0.62 µM; in [8], 15.6 µM.

Consider `Clc1ccc(Nc2ccnc(NCCNc3ccnc4cc(Cl)ccc34)n2)cc1`, for which the GI50 in [1] was 1.83 µM; in test [2], 1.44 µM; in [3], 1.69 µM; in [10], 1.22 µM; in test [5], 1.31 µM; in [6], 1.34 µM. In addition, the GI50 in [7] was 1.36 µM; in test [8] it was 1.51 µM; in [9] it was 126 nM. In addition, the TGI in test [1] was 4.38 µM; in test [2], 2.91 µM; in test [3], 3.17 µM; in [10], 2.59 µM; in test [5], 2.92 µM; in [6], 2.86 µM. The values for the TGI in test [7], in [8] and in test [9] were 2.69 µM, 3.47 µM and 2 µM, respectively.

On to `COC(=O)[C@H](C)[C@H]1CC[C@@](C)([C@H]2CC3C(C)(C)[C@H]4CCC(C)=C[C@H]4C[C@@]3(C)O2)OO1` (stereo partly drawn), for which the TGI in test [2] was 23.6 µM; in test [3] it was 35.6 µM; in test [10] it was 18.7 µM; in [4] it was 28.9 µM; in test [5], 23.8 µM; in [6], 4.62 µM. The TGI stood at 27.7 µM in test [7], 24 µM in test [8] and 12.4 µM in [9].

Take `Nc1nc(SCC(=O)O)[nH]c(=O)c1N`: the TGI in test [1], in [2], in test [3], in [4], in [5] and in test [6] was above 100 µM in each case. Also, the values for the TGI in test [7], in [8] and in test [9] were above 100 µM, 30.5 µM and above 100 µM, respectively.
